According to paper PMC11607601, “Absence of the dolichol synthesis gene DHRSX leads to N-glycosylation defects in Lec5 and Lec9 Chinese hamster ovary cells” (The Journal of Biological Chemistry, 2024):

Tests used:
Assay type in all cases: biochemical
[1] = molecular target: T1, chDHRSX (Chinese hamster DHRSX) (Cricetulus griseus, UniProt A0A9J7GKV7); assay: LC-MS of dolichol-18 formation, Michaelis-Menten fit; settings: 4 μM dolichal mixture, pH 8.0, 37 °C, PC/PE lipids
T1 construct: gene LOC113838539; N-terminal 6xHis tag, pET15b, E. coli BL21(DE3), HisTrap native purification
T1 sequence (A0A9J7GKV7 1-328): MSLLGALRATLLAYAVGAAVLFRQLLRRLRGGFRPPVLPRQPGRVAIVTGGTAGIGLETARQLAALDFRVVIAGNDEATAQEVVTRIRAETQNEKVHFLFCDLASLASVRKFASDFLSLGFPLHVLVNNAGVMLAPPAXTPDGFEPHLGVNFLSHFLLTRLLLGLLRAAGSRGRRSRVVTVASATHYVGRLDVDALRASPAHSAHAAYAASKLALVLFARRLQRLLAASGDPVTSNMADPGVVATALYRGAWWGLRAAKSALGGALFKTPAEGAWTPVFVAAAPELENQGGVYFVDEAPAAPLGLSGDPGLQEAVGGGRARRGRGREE
Source text: LC-MS of dolichol-18 formation, Michaelis-Menten fit on chDHRSX (Chinese hamster DHRSX)

[2] = molecular target: T2, hDHRSX (human DHRSX) (Homo sapiens, UniProt Q8N5I4); assay: LC-MS of dolichol-18 formation in membranes; settings: dolichal mixture 5 μg/ml, 5 mM NADPH, pH 8.0, 37 °C, 2 h
T2 construct: pUB83 hDHRSX-N-His lentiviral expression in DHRSX-null Lec5 and Lec9 CHO cells; membrane preparation
T2 sequence (Q8N5I4 2-330): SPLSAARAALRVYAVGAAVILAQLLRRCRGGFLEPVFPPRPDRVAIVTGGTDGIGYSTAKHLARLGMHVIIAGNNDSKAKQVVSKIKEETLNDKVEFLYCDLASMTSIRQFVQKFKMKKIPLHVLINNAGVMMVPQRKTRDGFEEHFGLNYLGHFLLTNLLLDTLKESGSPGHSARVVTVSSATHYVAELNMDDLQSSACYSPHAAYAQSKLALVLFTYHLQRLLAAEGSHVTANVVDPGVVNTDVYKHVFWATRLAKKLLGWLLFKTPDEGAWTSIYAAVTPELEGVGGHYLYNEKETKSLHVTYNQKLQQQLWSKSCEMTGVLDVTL

[3] = molecular target: T1, chDHRSX (Chinese hamster DHRSX); assay: LC-MS of polyprenal-18 formation, Michaelis-Menten fit; settings: 4 μM polyprenol mixture, pH 8.0, 37 °C, PC/PE lipids
Source text: LC-MS of polyprenal-18 formation, Michaelis-Menten fit on chDHRSX (Chinese hamster DHRSX)

[4] = molecular target: T2, hDHRSX (human DHRSX); assay: LC-MS of polyprenal-18 formation in membranes; settings: polyprenol mixture 5 μg/ml, 5 mM NAD+, pH 8.0, 37 °C, 2 h

## NC(=O)C1=CN([C@@H]2O[C@H](COP(=O)(O)OP(=O)(O)OC[C@H]3O[C@@H](n4cnc5c(N)ncnc54)[C@H](O)[C@@H]3O)[C@@H](O)[C@H]2O)C=CC1 [NADH]
[1]; read-out: NADH
  Km: 34 ± 7 µM

## NC(=O)C1=CN([C@@H]2O[C@H](COP(=O)(O)OP(=O)(O)OC[C@H]3O[C@@H](n4cnc5c(N)ncnc54)[C@H](OP(=O)(O)O)[C@@H]3O)[C@@H](O)[C@H]2O)C=CC1 [NADPH]
[1]; read-out: NADPH
  Km: 26 ± 8 µM
[2]
  LC-MS of dolichol-18 formation in membranes: expression of hDHRSX strongly increased dolichol formation

## NC(=O)c1ccc[n+]([C@@H]2O[C@H](COP(=O)(O)OP(=O)(O)OC[C@H]3O[C@@H](n4cnc5c(N)ncnc54)[C@H](OP(=O)(O)O)[C@@H]3O)[C@@H](O)[C@H]2O)c1 [NADP^+]
[3]; read-out: NADP^+
  Km: 96 ± 43 µM

## NC(=O)c1ccc[n+]([C@@H]2O[C@H](COP(=O)(O)OP(=O)(O)OC[C@H]3O[C@@H](n4cnc5c(N)ncnc54)[C@H](O)[C@@H]3O)[C@@H](O)[C@H]2O)c1 [NAD^+]
[3]; read-out: NAD^+
  Km: 81 ± 36 µM
[4]
  LC-MS of polyprenal-18 formation in membranes: expression of hDHRSX in Lec5 and Lec9 cells increased the formation of polyprenal
